Patent US20250213700A1, “COMPOUNDS, COMPOSITIONS, AND METHODS FOR CELL-SPECIFIC PHARMACOLOGY” (Duke University, priority 2022, published 2025)
Read-outs that look alike come from different tables or passages of the source.

How the values were obtained:
GABAAR = test: whole-mount retina, GABAAR-mediated evoked IPSC in retinal ganglion cells; assay type: cell-based, mouse; settings: 300 nM, 15 min
Method: (FIG. 6A) Viral strategy (top panel). […] Experimental overview (second panel from the top to bottom panel). Top: whole retina; synaptic current is evoked (stim) and recorded (voltage-clamp of dTomato+ RGC), with ionic and pharmaceutical conditions chosen to isolate the AMPAR or GABAAR. A 10 min baseline is followed by 15 min application of 300 nM Rx^DART.2+30 nM Alexa^647.1DART.2. […] (FIG. 6B) CMPDA.2^DART.2 (left). Electropositive spacer (PDB 3RNN). […] AMPAR structural model (middle) (composite of PDB 5WEO, 3RNN, and 1FTL). Cylinder depicts cell membrane. […] YM90K.1^DART.2 (right). Structural model (PDB 1FTL). […] (FIG. 6C) diazepam.1^DART.2 (left). Structural model (PDB 6HUP). […] GABAAR (middle) structural model (composite of PDB 6HUP and 6HUK). […] Structural model (PDB 6HUK).
Preparation of Retina: Mice were intravitreal injected AAV10 HaloTag™-dTomato to eyes. After 8-12 weeks, the mice killed by cervical dislocation. Both eyes were removed and dissected under a stereo-microscope. Retinas were isolated from the eyecups and placed in oxygenated (95% O2/5% CO2) cold-Ames medium (Sigma-Aldrich), supplemented with 21 mM NaHCO3. After the vitreous body was removed, a retina was cut into 3 pieces, leaving each retina piece attached to a filter paper with 2 mm hole by retina ganglion-cell-side-down. The pieces of retina were stored in bubbled Ames solution at room temperature, then transferred to recording chamber with retina ganglion-cell-side-up for recording.
Whole-cell patch-clamp recording: The brain slices or retinas were perfused with bubbled aCSF at 29-30° C. with a 2 ml/min flow rate. Recordings were made by whole cell patch recording techniques using a Multiclamp 700B amplifier (Molecular Devices, Axon Instruments Inc., Union City, CA). The signals were filtered at 10 KHz and acquired using Digitate 1440A and pClamp 10.7 (Molecular Devices). The recording pipettes (4 MΩ-6 MΩ) were filled with internal solutions. For GABAA receptor-mediated evoked inhibitory postsynaptic currents ([…]) recording, the pipettes filled with Cesium Chloride-based internal solution (in mM) 135 CsCl, 2 MgCl2, 0.5 EGTA, 10 HEPES, 4 Mg-ATP, 0.5 Na-GTP, 10 Na2-phosphocreatine, and QX314 (lidocaine N-ethyl bromide), pH adjusted to 7.3 with CsOH (290 mosm). For AMPA-receptor mediated evoked excitatory postsynaptic currents (eEPSCs) recording, the pipette solution contained (in mM) 130 CsMeS, 1 MgCl2, 0.5 EGTA, 10 HEPES, 4 Mg-ATP, 0.5 Na-GTP, 10 Na2-phosphocreatine, and 4 QX314, pH adjusted to 7.3 with CsOH (290 mosm). For experiment of brain slices and retinas, the eIPSCs or eEPSCs were elicited by electrical stimuli at 0.067 Hz in 0.3-ms duration and 150-300-ρA (60-70% maximum responses) stimulation intensity at a holding potential of −70 mV. The stimulating electrode was placed within 60-100 μm from the recording neuron under voltage-clamp mode. GABA-receptor mediated eIPSCs were isolated in the presence of DNQX ([…] AMPAR antagonist) and AP-V ([…] antagonist) in the bath solution. For AMPA-receptor mediated eEPSCs, added picrotoxin ([…], GABAAR antagonist) and AP-V ([…]) to the bath solution.

endogenous GABAAR = test: all-optical assay of GABAAR positive allosteric modulation in primary neuronal culture; assay type: cell-based, rat
Method: Cultured neuronal assays: Preparation of hippocampal cultures: Mixed glial and neuronal cultures were prepared from the hippocampus of postnatal day 0 to 1 Sprague-Dawley rat pups. Separate pools of dissociated cells were transfected via electroporation (LONZA, V4SP-3096) with plasmid constructs, and depending on assay directives, either plated individually or mixed with a different pool of electroporated cells after a 10 min recovery period. Cells were cultured on coverslips (Deckglaser) pre-treated with high molecular weight poly-D-lysine (Sigma, P7405; 0.05 mg/mL) in 24-well plates and maintained in NbActiv4 (BrainBits, Nb4-500) at 37 C, 5% CO2. Media was changed by half at DIV3 or 4 and then weekly thereafter; experiments were performed between DIV16 to DIV18.
Diazepam/Flumazenil: Dissociated neurons were electroporated with constructs and cultured for 2 weeks. The assay was performed in a modified GABAR-BASE, with an increased KCl concentration to enhance neuronal excitability and a lowered GABA level for a baseline. Again, a DRUG plate and three DoseGroups were used as described above for dosing, but no final WASH. […] Imaging alignment, proof-reading and analysis were performed in a similar fashion to the GABAR assay using MatLab.
Next it was sought to extend DART to allosteric modulators. The allosteric binding site of the GABAAR, known to bind several drugs, with effects ranging from negative to positive allosteric modulation was first analyzed. Diazepam represents the prototypic PAM at this site, and is the most clinically significant of the class. Thus, a diazepam analog was synthesized with a short alkyne attached to the amide of the diazepam core; an attachment site known to tolerate substituents and thought from structural inspection of the GABAAR-bound diazepam pose to allow linker access to free solution. Click chemistry was used to assemble the full-length diazepam.1DART.2 and leveraged an all-optical assay of endogenous GABAARs in primary neuronal culture, with ChR2 and GCaMP6s in the same cell.

COc1cc(CCCCl)ccc1CCOCCNC(=O)c1ccc(CNC(=O)CCOCCOCCOCCOCCOCCOCCOCCOCCOCCOCCOCCOCCOCCOCCOCCOCCOCCOCCOCCOCCOCCOCCOCCOCCOCCOCCOCCOCCOCCOCCOCCOCCOCCOCCOCCOCCn2cc(COCCOCCOCCOCCOCCOCCN3C(=O)CN=C(c4ccccc4)c4cc(Cl)ccc43)nn2)cc1 [diazepam.1DART.2, 1-(4-(19-(7-chloro-2-oxo-5-phenyl-2,3-dihydro-1H-benzo[e][1,4]diazepin-1-yl)-2,5,8, 11, 14, 17-hexaoxanonadecyl)-1H-1,2,3-triazol-1-yl)-N-(4-((2-(4-(3-chloropropyl)-2-methoxyphenethoxy)ethyl)carbamoyl)benzyl)-3,6,9,12, 15, 18,21,24,27, 30, 33, 36, 39, 42, 45, 48, 51, 54, 57, 60, 63, 66, 69, 72, 75, 78, 81, 84, 87, 90, 93, 96, 99, 102, 105, 108-hexatriacontaoxaundecahectan-111-amide]
GABAAR evoked IPSC integral (total charge transfer) boost, +HTP cells (GABAAR): 2 fold
GABAAR evoked IPSC, ddHTP cells (GABAAR): no effect on ddHTP RGCs
GABAAR-mediated IPSC potentiation, +HTP RGCs (GABAAR): significantly potentiated IPSCs
GABAAR evoked IPSC, ddHTP cells (GABAAR; listed as diazepam.1^DART.2): not ^ddHTP cells
DW (t=15 m) (endogenous GABAAR; Rx50/HTL50): ~750
EC50 (endogenous GABAAR; read-out: HTL50 (t=15 m), +HTP neurons, 15 min): 0.04 µM
EC50 (endogenous GABAAR; read-out: Rx50, ddHTP neurons, 5 µM GABA): 30 µM
